In ChEMBL document CHEMBL1146724, “Enzyme cleavable and biotinylated photoaffinity ligand with diazirine” (Bioorg Med Chem Lett, 2004):

Test: Km was determined

| Compound | Km |
| --- | --- |
| N[C@@H](Cc1ccccc1)C(=O)Nc1ccc([N+](=O)[O-])cc1 | 750 µM |
| CC(=O)CCCC[C@@H]1SCC2NC(=O)NC21 (some centres not stated) | 175 µM |
